Read-outs that look alike come from different tables or passages of the source.
Assays:
[1] = cited from earlier work
[2] = Sensory evaluation of zero-calorie carbonated beverage samples by 20 panelists; settings: 0.050% stevia composition
Method: The sensory properties were evaluated by 20 panelists.

[3] = carbonated beverages; Chang and Cook 1983; cited from earlier work
[4] = sensory evaluations, Crammer and Ikan 1986

Row | Compound | times sweeter than sucrose ([1]; Tanaka 1987, Phillips 1989) | times sweeter than sucrose [1, 4] | heat and pH stability [3] | further results
1 | C=C1C[C@@]23CC[C@H]4[C@@](C)(CCC[C@@]4(C)C(=O)O[C@@H]4O[C@H](CO)[C@@H](O)[C@H](O)[C@H]4O)[C@@H]2CC[C@]1(O[C@@H]1O[C@H](CO)[C@@H](O)[C@H](O)[C@H]1O[C@@H]1O[C@@H](C)[C@H](O)[C@@H](O)[C@H]1O)C3 [Dulcoside A] | 30 times |  |  | 
2 | C=C1C[C@@]23CC[C@H]4[C@@](C)(CCC[C@@]4(C)C(=O)O[C@@H]4O[C@H](CO)[C@@H](O)[C@H](O)[C@H]4O)[C@@H]2CC[C@]1(O[C@@H]1O[C@H](CO)[C@@H](O)[C@H](O[C@@H]2O[C@H](CO)[C@@H](O)[C@H](O)[C@H]2O)[C@H]1O[C@@H]1O[C@H](CO)[C@@H](O)[C@H](O)[C@H]1O)C3 [Reb A, rebaudioside A] |  | 350-450 times | confirmed their heat and pH stability | Number of panelists detected the attribute: Aftertaste [2]: 12; Number of panelists detected the attribute: Astringent taste [2]: 9; Number of panelists detected the attribute: Bitter taste [2]: 10; sensory attributes among major steviol glycosides ([1]; Tanaka 1987, Phillips 1989): the least astringent, the least bitter, and the least persistent aftertaste
3 | C=C1C[C@@]23CC[C@H]4[C@@](C)(CCC[C@@]4(C)C(=O)O[C@@H]4O[C@H](CO)[C@@H](O)[C@H](O)[C@H]4O)[C@@H]2CC[C@]1(O[C@@H]1O[C@H](CO)[C@@H](O)[C@H](O)[C@H]1O[C@@H]1O[C@H](CO)[C@@H](O)[C@H](O)[C@H]1O)C3 [stevioside] | 110-270 times |  | confirmed their heat and pH stability | 
4 | Rebaudioside B [reb B] |  | 300-350 times |  | 
5 | rebaudioside C | 40-60 times |  |  | 

— US9877501B2, “Stevia composition” (PureCircle Sdn Bhd, priority 2011, dated 2018)
